PubChem BioAssay (NCI)
“And” between values parts separate entries of the source, which are not always exact repeats. Identical values can stand only once.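 1) Cells in 96-well plates. 2) Compound, 48 h, 5 concentrations. 3) Linear interpolation between surrounding doses. 4) Unreached endpoint = highest concentration. GI50 is the concentration that inhibits growth by half. TGI denotes the concentration required for complete inhibition of growth.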

Tested on: MDA-MB-468 breast
Test: NCI-60 cell line screen, 48 h

SMILES	GI50	TGI
COc1ccc(C2C(C#N)=C(N)Oc3c2sc2ccc(C)cc32)cc1 (stereo unspecified)	2.42 µM	9.74 µM
COc1ccc(Cl)c(Nc2nc3ccccc3nc2NS(=O)(=O)c2cccc(NC(=O)C(C)(C)N)c2)c1	2.63 µM and 1.62 µM	14.8 µM and > 10 µM
COc1ccccc1CNCCCN1C(=O)c2ccc3c4c(ccc(c24)C1=O)C(=O)N(CCCN)C3=O	0.333 µM	1.36 µM
N#CSCc1ccc(Cl)c(CSC#N)c1	0.129 µM	32.6 µM
Cc1ccc(C(=O)NC2CCC2)cc1-c1ccc(C(=O)NCC2CC2)cc1	> 17.2 µM	> 25 µM
N#Cc1c(NC(=O)c2ccc(F)c(Cl)c2)sc2c1CCC(=O)C2	0.387 µM	1.95 µM
Nc1ncnc2c1c(-c1ccc(Oc3ccccc3)cc1)nn2C[C@@H]1SSC[C@H]1O	0.349 µM	2.61 µM
CCN1C(=O)N(CC)C2C1NN=c1s/c(=C\c3ccccn3)c(=O)n12 (stereo unspecified)	0.523 µM	5.67 µM
Oc1cccc2ccc(-c3nnc(SCc4ccc(O)c5ncccc45)o3)nc12	0.986 µM	8.49 µM
Cc1nn(-c2ccc(Cl)cc2)c2nc3c(nc12)C(=O)C(=O)c1ccccc1-3	13.9 µM	> 100 µM
COc1cnc2c(c1)C(=O)c1c-2n(CCCNC2=NCCS2)c(=O)c2cc(Cl)ccc12	0.086 µM	2.18 µM
Cc1ccc2c(n1)C(=O)C(Cl)=C(Nc1cccc(C(F)(F)F)c1)C2=O	1.77 µM	3.66 µM
NC(=O)Nc1cc(-c2cccc(F)c2)sc1C(=O)N[C@H]1CCCNC1	0.591 µM and 0.398 µM	2.35 µM and 1.64 µM
COc1ccc(/C=C(\C(=O)NCc2cccnc2)S(=O)(=O)c2ccccc2)cc1OC	1.57 µM	5.27 µM
CC(C)(C)c1[nH]nc2c1C(c1cc3ccccc3[nH]c1=O)Nc1cc(C(=O)OCc3ccccc3)ccc1N2 (stereo unspecified)	2.46 µM	6.74 µM
Cc1ccc(-c2csc(NC(=O)N3CCN(c4cc5c(cc4F)c(=O)c(C(=O)O)cn5C4CC4)CC3)n2)cc1	1.29 µM	8.17 µM
Nc1c(C(=O)c2cccc(-c3cccnc3)c2)cnn1-c1ccc(F)cc1F	2.97 µM	> 25 µM
COc1ccc(C2=CC(c3ccc(OC)cc3Br)N3C=CSC3=N2)cc1 (stereo unspecified)	2.65 µM	10 µM
COc1ccc(CC(=O)c2ccc(O)cc2O)cc1	56.7 µM	> 100 µM
NC(=O)c1ccc(-c2nc(-c3ccc4c(c3)OCO4)c(-c3ccccn3)[nH]2)cc1	> 25 µM and 21.6 µM	> 25 µM and 57 µM
Nc1ccccc1C#C/C=C\C#Cc1cccc(O)c1	1.38 µM	20.4 µM
CCOC(=O)c1cc2c(n1Cc1cc(OC)c(OC)c(OC)c1)-c1oncc1CCC2	0.666 µM	> 83.6 µM
CC(C)=CCc1c2c(c(O)c3c1O[C@]14C(=C[C@@H]5C[C@H]1C(C)(C)O[C@@]4(C/C=C(/C)C(=O)O)C5=O)C3=O)CC(O)C(C)(C)O2 (stereo partly specified)	12.1 µM	27.6 µM
Cc1ccc(-c2nc3nc(-c4ccccc4)nc(N4CCNCC4)c3o2)cc1	0.31 µM	1.23 µM
CN(C)c1ccc(C(=NO)c2ccc(N(C)C)cc2)cc1	0.716 µM	4.43 µM
Nc1c(C(=O)c2cccc(C#CCO)c2)cnn1-c1ccc(F)cc1	> 25 µM	> 25 µM
CC(C)CCNCC(O)Cn1c2ccccc2c2ccccc21 (stereo unspecified)	1.95 µM	4.35 µM

SMILES	GI50	TGI
CCN(CC)c1ccc(/C=N/NC(=O)c2ccc(NS(C)(=O)=O)cc2)cc1	0.358 µM	3.81 µM
C=C1CC[C@@H]2[C@](C)(COC(C)=O)[C@H](OC(C)=O)CC[C@@]2(C)[C@@H]1CC(Nc1ccc(S(=O)(=O)Nc2ccc(Cl)nn2)cc1)C1=CCOC1=O (stereo partly specified)	1.32 µM	3.37 µM
Cc1nn(C)c(COc2ccc(N3CCN(S(=O)(=O)N(C)C)CC3)cc2)c1-c1cccc2c(CCCOc3cccc4ccccc34)c(C(=O)O)n(CCN3CCOCC3)c12	1.91 µM	5.36 µM
Cn1cc(-c2csc(-c3cn(CCCN4CCCCC4)c4ccccc34)n2)c2cccnc21	1.87 µM	3.74 µM
COC(=O)Nc1nc2ccc(Oc3cccc(NC(=O)Nc4cc(C(F)(F)F)ccc4F)c3)cc2[nH]1	7.87 µM	> 23.1 µM
[Cl][Ru].c1ccc(-c2cccc(-c3ccccn3)n2)nc1.c1ccc(-c2ccnc3c2ccc2c(-c4ccccc4)ccnc23)cc1	1.31 µM	3.68 µM
O=C1C(SCCO)=C(SCCO)C(=O)N1c1ccc(-c2ccccc2)cc1	0.534 µM	1.5 µM
c1ccc2[nH]c(-c3cc(-c4ccc5c(c4)OCO5)n[nH]3)nc2c1	3.57 µM	17.2 µM
C#CCNCCN1C(=O)c2ccc3c4c(ccc(c24)C1=O)C(=O)N(CCNCC#C)C3=O	2.25 µM	10.4 µM
Cc1[nH]c(=O)nc(Nc2ccc(Cl)cc2)c1C(=O)N1CCN(CCO)CC1	34.8 µM	> 100 µM
Cc1[nH]c2ccc(F)cc2c1-c1nc2c3cccnc3c3ncccc3c2[nH]1	0.201 µM	0.787 µM
O=c1c(O)c(-c2ccc(O)c(O)c2)oc2cc(O)cc(O)c12	6.67 µM	47.2 µM
CC1=C(CCC(C)NCc2ccc(OCCCN3CCCCC3)cc2)C(C)(C)CCC1 (stereo unspecified)	1.53 µM	3.12 µM
COC(=O)C1=C(C)NC(C)=C(C(=O)OCC(C)C)C1c1ccccc1[N+](=O)[O-] (stereo unspecified)	2.83 µM	9.63 µM
COC(=O)c1cc2ccccc2c2c3c(ccc12)OCO3	48.8 µM	> 1000 µM
Cc1nn(-c2ccc([N+](=O)[O-])cc2)c2ncnc(N/N=C/c3ccccc3O)c12	1.09 µM	3.88 µM
O=C(Nc1ccc(Oc2cccc(F)c2)c(Cl)c1)c1cnccn1	0.834 µM	4.99 µM
CC[C@H](CO)Nc1nc(NCc2ccccc2)c2ncn(C(C)C)c2n1	15.8 µM	33.9 µM
O=C1NOC(c2ccc(O)cc2)(c2ccc(O)cc2)c2ccccc21	> 100 µM	> 100 µM
O=[N+]([O-])c1ccc(N=Nc2ccc(O)c3ccccc23)cc1	3.26 µM	30.6 µM
CCC[CH2][Sn]1([CH2]CCC)[O]C2C(CO)OC(n3ccc(N)nc3=O)C2[O]1 (stereo unspecified)	0.471 µM	2 µM
O1[As]2O[As]3O[As]1O[As](O2)O3	0.216 µM	1.26 µM
COc1ccc(C(=O)/C=C/c2cccc(Nc3ccnc4cc(Cl)ccc34)c2)cc1	0.576 µM	3.38 µM
COc1cc(OC)c(C(=O)/C=C/c2cccc(C#N)c2)c(OC)c1	0.792 µM	2.46 µM
O=C1c2ccc3c4c(ccc(c24)C(=O)N1CCCNCc1ccccc1Cl)C(=O)N(CCCNCc1ccccc1Cl)C3=O	0.124 µM	0.352 µM
Cc1cnc(CNC(=O)c2c(=O)c3ccc(N4CCCN(C)CC4)nc3n3c2sc2ccccc23)cn1	15.7 µM	34.8 µM
